Test results from the supplement of paper PMC10307832.

Tests used:
Experiment in all cases: relative viability (nuclei count vs DMSO), 5 days (fraction); higher = more cells survive
[1] = compound: C1=CC2=NC=CN=C2C=C1/C=C/3\C(=O)NC(=O)S3 + O=C(c1cc(Cc2n[nH]c(=O)c3ccccc23)ccc1F)N1CCN(C(=O)C2CC2)CC1 [Olaparib] (partner 8 µM)
Method in brief: (§1)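 Each reported value is a median over duplicate plates. It expresses relative viability: treated-well nuclei count divided by vehicle-well nuclei count. Lung cancer cell lines in 1536-well plates were dosed by pin tool a day after seeding, alone with one drug or with a fixed anchor-drug dose plus five library-drug doses (not always all listed) in √10 steps, and nuclei were counted after 5 days.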

BGJ398 + Foretinib = compound: CCN1CCN(c2ccc(Nc3cc(N(C)C(=O)Nc4c(Cl)c(OC)cc(OC)c4Cl)ncn3)cc2)CC1 [BGJ398] + COc1cc2c(Oc3ccc(NC(=O)C4(C(=O)Nc5ccc(F)cc5)CC4)cc3F)ccnc2cc1OCCCN1CCOCC1 [Foretinib] (partner 0.25 µM)
Method in brief: as §1

BGJ398 + Crizotinib = compound: CCN1CCN(c2ccc(Nc3cc(N(C)C(=O)Nc4c(Cl)c(OC)cc(OC)c4Cl)ncn3)cc2)CC1 [BGJ398] + C[C@@H](Oc1cc(-c2cnn(C3CCNCC3)c2)cnc1N)c1c(Cl)ccc(F)c1Cl [Crizotinib] (partner 1 µM)
Method in brief: as §1

[2] = compound: C1=CC2=NC=CN=C2C=C1/C=C/3\C(=O)NC(=O)S3 + NC(=O)Nc1cc(-c2cccc(F)c2)sc1C(=O)N[C@H]1CCCNC1 [AZD7762] (partner 0.2 µM)
Method in brief: as §1

| Cell Line | relative viability ([1]; first compound 0.02 µM) | relative viability ([1]; first compound 0.06325 µM) | relative viability ([1]; first compound 0.2 µM) | relative viability ([1]; first compound 0.6325 µM) | relative viability ([1]; first compound 2 µM) | relative viability (BGJ398 + Foretinib; first compound 0.01 µM) | relative viability (BGJ398 + Foretinib; first compound 0.1 µM) | relative viability (BGJ398 + Foretinib; first compound 0.3162 µM) | relative viability (BGJ398 + Foretinib; first compound 1 µM) | relative viability (BGJ398 + Crizotinib; first compound 0.01 µM) | relative viability (BGJ398 + Crizotinib; first compound 0.03162 µM) | relative viability (BGJ398 + Crizotinib; first compound 0.1 µM) | relative viability (BGJ398 + Crizotinib; first compound 0.3162 µM) | relative viability (BGJ398 + Crizotinib; first compound 1 µM) | relative viability ([2]; first compound 0.02 µM) | relative viability ([2]; first compound 0.2 µM) | relative viability ([2]; first compound 0.6325 µM) | relative viability ([2]; first compound 2 µM) | relative viability ([2]; first compound 0.06325 µM) | relative viability (BGJ398 + Foretinib; first compound 0.03162 µM) |
| --- | --- | --- | --- | --- | --- | --- | --- | --- | --- | --- | --- | --- | --- | --- | --- | --- | --- | --- | --- | --- |
| NCI-H1650 | 0.689 | 0.825 | 0.845 | 0.735 | 0.927 | 1.31 | 1.17 | 0.857 | 1.08 | 0.955 | 1.01 | 0.862 | 0.879 | 0.937 | – | – | – | – | – | – |
| NCI-H1792 | 0.319 | – | 0.347 | 0.408 | 0.315 | – | – | – | – | 0.939 | 0.999 | 1.08 | 0.99 | 0.93 | 0.675 | 0.642 | 0.667 | 0.348 | – | – |
| NCI-H1793 | 0.805 | 0.752 | 0.801 | 0.779 | 0.702 | 0.725 | 0.557 | 0.725 | 0.666 | – | – | – | – | – | 0.573 | 0.612 | 0.309 | 0.347 | 0.271 | 0.579 |
| NCI-H2009 | 0.685 | 0.715 | 0.685 | 0.739 | 0.703 | 1.11 | 1.22 | 1.22 | 1.26 | 1 | 1.04 | 1.02 | 1.04 | 1.02 | – | – | – | – | – | 1.24 |
| NCI-H2023 | 0.428 | 0.461 | 0.508 | 0.492 | 0.498 | 0.847 | 0.79 | 0.805 | 0.905 | 0.618 | 0.62 | 0.605 | 0.747 | 0.655 | – | – | – | – | – | 0.997 |
| NCI-H2228 | 0.666 | 0.599 | 0.616 | 0.654 | 0.649 | 0.776 | 0.848 | 0.822 | 0.826 | 0.433 | 0.64 | 0.319 | 0.252 | 0.347 | – | – | – | – | – | 0.893 |
| NCI-H2342 | 0.396 | 0.403 | 0.449 | 0.415 | 0.373 | 1.05 | 1.08 | 1.07 | 1.1 | – | – | – | – | – | 0.377 | 0.453 | 0.397 | 0.335 | 0.47 | 0.98 |
| SK-LU-1 | 0.477 | 0.42 | 0.488 | 0.521 | 0.465 | 0.716 | 0.778 | 0.791 | 0.869 | 0.905 | 0.906 | 1.01 | 0.926 | 0.787 | – | – | – | – | – | 0.833 |
| SK-MES-1 | 0.677 | 0.793 | 0.846 | 0.796 | 0.657 | 0.869 | 0.971 | 0.809 | 1.12 | 0.944 | 1.05 | 1 | 0.942 | 0.967 | – | – | – | – | – | 1.08 |
| SW 900 | 0.789 | 0.769 | 0.884 | – | 0.727 | 0.856 | 0.895 | 0.737 | 0.668 | – | – | – | – | – | 0.653 | 0.652 | – | 0.525 | 0.571 | 0.823 |
| SW 1573 | 0.501 | 0.65 | 0.434 | 0.405 | 0.387 | 0.91 | 0.866 | 0.594 | 0.973 | 0.878 | 0.802 | 0.773 | 0.808 | 0.767 | – | – | – | – | – | 1.13 |
